This is an account of results in ChEMBL document CHEMBL4190194, “Dudawalamides A-D, Antiparasitic Cyclic Depsipeptides from the Marine Cyanobacterium Moorea producens” (J Nat Prod, 2017).

Numbered stars: 1 amine (or outer) side, 2 acyl side, 3 side chain; on linkers, the order of the positions; unused ones are H or OH. Bridge positions count the residues as written; N and C are the ends. Square brackets hold non-standard residues; d marks the D form. Peptide text beside a SMILES is read from it. ξ: configuration not given here. X1 = C#CCCC[C@H](O[*:2])C(C)(C)C(=O)[*:1]; Hmp(2R,3S) = CC[C@H](C)[C@@H](O)C(=O)O; NMeF = CN[C@@H](Cc1ccccc1)C(=O)O; ξNMeF = CNC(Cc1ccccc1)C(=O)O; NMeV = CN[C@H](C(=O)O)C(C)C; Hiv = CC(C)[C@H](O)C(=O)O; ξNMeV = CNC(C(=O)O)C(C)C; ξP = O=C(O)C1CCCN1

One data set deals with Trypanosoma cruzi. Put plainly: Antitrypanosomal activity against transgenic beta-galactosidase-expressing Trypanosoma cruzi Tulahuen clone C4 ATCC PRA33 assessed as growth inhibition at 10 ug/ml after 4 days relative to control. It is filed as functional. Particulars: Tulahuen clone C4 ATCC PRA33, 96 h, read-out: GI.
The test system of a further data set is Leishmania donovani. The data set can be described thus: Antileishmanial activity against Leishmania donovani WR2801 axenic amastigotes after 6 days by XTT assay. Particulars: WR2801, 144 h. Format: functional, organism-based. Background: Formazan colour is commonly taken as a measure of viable cells.
A further data set concerns Plasmodium falciparum. Put plainly: Antimalarial activity against chloroquine-resistant Plasmodium falciparum W2 infected in human type A positive erythrocytes by [3H]-hypoxanthine incorporation assay. It is filed as functional, organism-based.
A further data set deals with NCI-H460. The data set can be described thus: Cytotoxicity against human H460 cells at 30 uM after 48 hrs by MTT assay. It is filed as cell-based. Particulars: nci-h460, 48 h.

Broadly, the IC50 is the concentration that inhibits the measured activity by half. Lower therefore signals inhibition by little substance. As to `C#CCCC[C@@H]1OC(=O)CNC(=O)[C@H](Cc2ccccc2)N(C)C(=O)[C@@H]2CCCN2C(=O)[C@@H]([C@@H](C)CC)OC(=O)[C@H](C(C)C)N(C)C(=O)[C@H](C(C)C)NC(=O)C1(C)C` (V[NMeV][Hmp(2R,3S)]P[NMeF]G; linker N-C via X1), the inhibition of growth at 10 µg/mL in the data set on Trypanosoma cruzi is 60%. The IC50 was determined as 2.6 µM in the data set on Leishmania donovani and 3.5 µM with Plasmodium falciparum. Further, the Activity entry in the data set with NCI-H460 is “Non-Toxic”.
The like results for `C#CCCC[C@H]1OC(=O)CNC(=O)[C@@H](Cc2ccccc2)N(C)C(=O)[C@@H]2CCCN2C(=O)[C@H]([C@@H](C)CC)N(C)C(=O)[C@H](C)NC(=O)[C@H](C)OC(=O)C1(C)C` were, in that order, 12%, more than 10 µM, 3.6 µM and “Non-Toxic”.
Consider `C#CCCC[C@@H]1OC(=O)[C@H](C)NC(=O)[C@H](Cc2ccc(OC)cc2)N(C)C(=O)[C@@H]2CCCN2C(=O)[C@H](Cc2ccccc2)N(C)C(=O)[C@H](C(C)C)NC(=O)C1(C)C`, for which the inhibition of growth at 10 µg/mL in the data set on Trypanosoma cruzi was 7%. The IC50 was more than 10 µM in the data set on Leishmania donovani and 8 µM in the data set with Plasmodium falciparum. Also, in the data set with NCI-H460, the Activity entry was “Non-Toxic”.
For the compound `C#CCCC[C@@H]1OC(=O)CNC(=O)C(Cc2ccccc2)N(C)C(=O)C2CCCN2C(=O)[C@H](C(C)C)OC(=O)C(C(C)C)N(C)C(=O)[C@H](C(C)C)NC(=O)C1(C)C` (some centres undefined) (V[ξNMeV][Hiv][ξP][ξNMeF]G; linker N-C via X1), inhibition in the data set on Plasmodium falciparum was half-maximal at 10 µM (IC50). In the data set on NCI-H460, the Activity entry is “Non-Toxic”.
